Measured values: patent US20250091994A1, “RAS/RAF BINDING INHIBITOR COMPOUND” (NATIONAL UNIVERSITY CORPORATION KOBE UNIVERSITY, priority 2021, published 2025)

Legend:
Type in all cases: cell-based
[1] = tested on: acute lymphoblastic leukemia cells CCRF-CEM (K-RasG12D); assay: Cell growth inhibition, suspension cells CCRF-CEM; details: Homo sapiens, 72 hours; for inhibition at 1 µM: read-out: CCRF-CEM (KRasG12D) % inhibition at 1 μM
Experimental: (§1) The cell growth inhibitory activity of the compound of the present invention on human culture cells having active-type mutation in Ras was evaluated by the below-mentioned method using suspension cancer cells {acute lymphoblastic leukemia cells CCRF-CEM (K-RasG12D), promyelocytic leukemia cells HL60 (N-RasQ61L), acute lymphoblastic leukemia cells MOLT4 (N-RasG12C), and small cell lung cancer cells SHP77 (K-RasG12V)} and adherent cancer cells {large bowel cancer cells SW480 (K-RasG12V) and large bowel cancer cell SW620 (K-RasG12V)}.
(§2) (Case of suspension cells) The cells suspended in a medium containing 0.5% (v/v) fetal bovine serum (FBS) and each compound solution (final DMSO concentration: 1%) were seeded on a 96-well plate (2 to 4×10^4 cells/well), and the resulting mixture was then cultured at 37° C. in the presence of 5% CO2 for 72 hours.
(§3) Thereafter, the number of viable cells was measured using Cell Counting Reagent (Nacalai Tesque) in accordance with the manufacturer's instructions. Inhibition by the test compound was determined according to the following equation: […]

[2] = tested on: promyelocytic leukemia cells HL60 (N-RasQ61L); assay: Cell growth inhibition, suspension cells HL60; details: Homo sapiens, HL-60, 72 hours; for inhibition at 10 µM: read-out: HL-60 (NRasQ61L) % inhibition at 10 μM (***); for inhibition at 1 µM: read-out: HL-60 (NRasQ61L) % inhibition at 1 μM
Procedure, shortened: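 Suspension cells, 2 to 4×10^4 per well, cultured with compound in medium with 0.5% FBS (1% DMSO final) for 72 h at 37° C, 5% CO2. Viable cells counted with Cell Counting Reagent; inhibition calculated relative to controls.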

[3] = tested on: acute lymphoblastic leukemia cells MOLT4 (N-RasG12C); assay: Cell growth inhibition, suspension cells MOLT4; details: Homo sapiens, MOLT-4; 3.3 μM (*), 72 hours; read-out: MOLT-4 (NRasG12C) % inhibition at 3.3 μM (*)
Experimental: as §1, §2, §3

[4] = tested on: small cell lung cancer cells SHP77 (K-RasG12V); assay: Cell growth inhibition, suspension cells SHP77; details: Homo sapiens, 72 hours
Experimental: as §1, §2, §3

[5] = tested on: large bowel cancer cells SW480 (K-RasG12V); assay: Cell growth inhibition, adherent cells SW480; details: Homo sapiens, 72 hours, read-out: SW480 (KRasG12V) % inhibition at 10 μM
Experimental: as §1
(Case of adherent cells) The cells suspended in a medium containing 10% FBS (1 to 2×10^4 cells/well) were seeded on a 96-well plate, and were then cultured at 37° C. in the presence of […]. Thereafter, the medium was exchanged with a medium containing […], to which each compound solution (final DMSO concentration: […]) had been added, and the cells were then cultured at 37° C. in the presence of […] for 72 hours.
as §3

[6] = tested on: large bowel cancer cell SW620 (K-RasG12V); assay: Cell growth inhibition, adherent cells SW620; details: Homo sapiens, SW-620; 1 μM, 72 hours; read-out: SW620 (KRasG12V) % inhibition at 1 μM
Procedure, shortened: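 Adherent cells, 1 to 2×10^4 per well, grown overnight in 10% FBS, then exposed to compound in low-serum medium […] for 72 h at 37° C. Viable cells counted with Cell Counting Reagent; inhibition calculated relative to controls.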

[7] = tested on: Vemurafenib-resistant malignant melanoma cells A375R (BRafV600E); assay: Cell growth inhibition, drug-resistant malignant melanoma A375R; details: Homo sapiens, in the presence of 1 μM PLX (Vemurafenib), 72 hours
Experimental: (§4) The human malignant melanoma cell lines A375 and HT 144, each having BRafV600E mutation, were cultured in a medium containing 10% FBS at 37° C. in the presence of 5% CO2. At the time point in which the cells became confluent, 1 μM Vemurafenib, a BRaf inhibitor, was added to the medium, and the cells were then cultured in the presence of Vemurafenib for 1 month or more (during which the medium was exchanged every 1 week), so as to acquire Vemurafenib-resistant malignant melanoma cells A375R and HT 144R. The resulting resistant cells were suspended in a medium containing 10% FBS, and then seeded on a 96-well plate to an amount of 1 to 2×10^4 cells/well. The cells were cultured at 37° C. in the presence of 5% CO2 overnight. Thereafter, the medium was exchanged with a medium containing 0.5% FBS, to which each compound solution (final DMSO concentration: 1%) and 1 μM Vemurafenib had been added, and the cells were then cultured at 37° C. in the presence of 5% CO2 for 72 hours.
as §3
(§5) Hereafter, Inhibition (%) by 3.3 μM compound is shown.

[8] = tested on: Vemurafenib-resistant malignant melanoma cells HT 144R (BRafV600E); assay: Cell growth inhibition, drug-resistant malignant melanoma HT144R; details: Homo sapiens, in the presence of 1 μM PLX (Vemurafenib), 72 hours
Experimental: as §4, §3, §5

[9] = tested on: phosphorylated MEK (pMEK) in HL60 cells; assay: Ras-Raf signaling inhibition at culture cell level, pMEK; details: Homo sapiens, HL-60; HL60 (N-RasQ61L), 1 μM test compound, 3 hours
Experimental: (§6) The Ras-Raf signaling inhibitory activity of the compound of the present invention at a culture cell level was evaluated by the following method.
(§7) The HL60 cells described in Test Example 2 suspended in a medium containing 0.5% (v/v) FBS with each compound solution (final DMSO concentration: 1%), were seeded on a 12-well plate (2 to 4×10^5 cells/well), and the resulting mixture was then cultured at 37° C. in the presence of 5% CO2 for 3 hours.
(§8) After completion of the cell culture, proteins were extracted from the cells, using RIPA Buffer (Nacalai Tesque) containing a mixture of protease inhibitors and phosphatase inhibitors. An equivalent amount of protein was separated by standard SDS-PAGE and was then transferred onto a PVDF membrane. In order to detect the activation (phosphorylation) of MEK and ERK, downstream molecules of the Ras-Raf signaling pathway, the membrane was probed with 1000-fold diluted primary antibodies {phosphorylated MEK (pMEK: #9121), phosphorylated ERK (pERK: #9101), total MEK (tMEK: #9122), and total ERK (tERK: 9102); all from Cell signaling}, and then with a 1000-fold diluted horseradish peroxidase-labeled secondary antibody against rabbit immunoglobulin G. The immunoreactive signals were colored with EzWestLumi One (ATTO), and were then detected by Fusion FX (Vilber). Signal intensity was quantified by pixel counting. Inhibition by the test compound was determined according to the following equation: […]

[10] = tested on: phosphorylated ERK (pERK) in HL60 cells; assay: Ras-Raf signaling inhibition at culture cell level, pERK; details: Homo sapiens, HL-60; HL60 (N-RasQ61L), 1 μM test compound, 3 hours
Experimental: as §6, §7, §8

Row | Compound | inhibition at 1 µM [1] [%] | inhibition at 10 µM [2] [%] | inhibition at 3.3 µM [3] [%] | inhibition at 1 µM ([4]; 1 μM, read-out: SHP77 (KRasG12V) % inhibition at 1 μM) [%] | inhibition at 10 µM [5] [%] | inhibition at 1 µM [6] [%] | inhibition at 3.3 µM [7] [%] | inhibition at 3.3 µM [8] [%] | inhibition at 1 µM [9] [%] | inhibition at 1 µM [10] [%] | inhibition at 3.3 µM ([1]; 3.3 μM (*), read-out: CCRF-CEM (KRasG12D) % inhibition at 3.3 μM(*)) [%] | inhibition at 1 µM [2] [%] | inhibition at 3.3 µM ([4]; 3.3 μM (*), read-out: SHP77 (KRasG12V) % inhibition at 3.3 μM (*)) [%]
1 | COc1cc(/C=C2/C(=O)c3ccccc3N2C(C)=O)ccc1OCC(N)=O [Example 1, (Z)-2-(4-((1-acetyl-3-oxoindolin-2-ylidene)methyl)-2-methoxyphenoxy)-acetamide] | 51 | 95 | 88 | 73 | 50 | 53 | 28 | 66 | 30 | 61 | – | – | –
2 | CC(=O)N1/C(=C/c2nc3cc(C(=O)N4CCOCC4)ccc3s2)C(=O)c2ccccc21 [Example 48, (E)-1-acetyl-2-((5-(morpholine-4-carbonyl)benzo [d]thiazol-2-yl)-methylene)indolin-3-one] | 69 | 100 | – | – | – | – | – | – | 81 | 96 | – | – | –
3 | CC(=O)N1/C(=C/c2nc3ccc(C(=O)N4CCOCC4)cc3s2)C(=O)c2ccccc21 [Example 58, (E)-1-acetyl-2-((6-(morpholine-4-carbonyl)benzo [d]thiazol-2-yl)-methylene)indolin-3-one] | 45 | 99 | – | – | – | – | – | – | 72 | 100 | – | – | –
4 | CC(=O)N1/C(=C/c2ncc(C(=O)N3CCOCC3)s2)C(=O)c2ccccc21 [Example 68, (E)-1-acetyl-2-((5-(morpholine-4-carbonyl)thiazol-2-yl)methylene)-indolin-3-one] | – | – | – | – | 52 | – | – | – | 68 | 93 | 80 | 37 | 67
5 | CCCCOc1cc(/C=C2/C(=O)c3ccccc3N2C(C)=O)nc2ccc(C(=O)N3CCOCC3)cc12 [Example 84, (Z)-1-acetyl-2-((4-butoxy-6-(morpholine-4-carbonyl)quinolin-2-yl)methylene)-indolin-3-one] | – | – | – | – | – | 90 | – | – | 58 | 63 | – | 96 | –
